Read-outs that look alike come from different tables or passages of the source. No end group written: not given here. *: point of attachment. Acm = CC(=O)NC*
Key:
CRFR2 = molecular target: T1, CRFR2 (Rattus norvegicus, UniProt P47866); test: stimulation of cAMP accumulation in A7r5 cells; format: cell-based
T1 construct: A7r5 cells, which express CRFR2; endogenous in cells; host or cells: A7r5 cells
Method: Urocortin 2 precursors were overexpressed in various cell lines, and their function was evaluated. Pancreatic and skin cell lines were infected with mouse urocortin 2 (mUcn 2) lentivirus. The amino acid sequence of mouse urocortin 2 is provided as SEQ ID NO:10. […] The peptide was synthesized and bioactivity was determined by the stimulation of cAMP accumulation in A7r5 cells, which express CRFR2. […] It is possible that R^0mUcn 2 could be further processed by aminopeptidases to mUcn 2(1-38). Number of assays are depicted as a superscript.
The corresponding human analog, R^0hUcn 2, was synthesized.
The EC50S were calculated based on protein determination by immunoassay and chromatographic peak height.

[1] = QC reverse phase HPLC (trifluoroacetic acid/acetonitrile) as evidence of solubility/hydrophilicity; format: physicochemical; settings: from reverse phase HPLC retention time
Excerpt: A peptide extended with a hydrophilic arginine residue such as R^0hUcn 2 is likely more soluble, and therefore, a better pharmaceutical agent, than hUcn 2(1-38). […]

[2] = A7r5 cells, which express CRFR2, range in brackets, number of assays as superscript, read-out: EC50 for stimulation of cAMP accumulation in A7r5 cells
[3] = A7r5 cells, EC50s calculated based on protein determination by immunoassay and chromatographic peak height, read-out: cAMP A7r5 (EC50)

T1 sequence (P47866 1-431 isoform P47866-2): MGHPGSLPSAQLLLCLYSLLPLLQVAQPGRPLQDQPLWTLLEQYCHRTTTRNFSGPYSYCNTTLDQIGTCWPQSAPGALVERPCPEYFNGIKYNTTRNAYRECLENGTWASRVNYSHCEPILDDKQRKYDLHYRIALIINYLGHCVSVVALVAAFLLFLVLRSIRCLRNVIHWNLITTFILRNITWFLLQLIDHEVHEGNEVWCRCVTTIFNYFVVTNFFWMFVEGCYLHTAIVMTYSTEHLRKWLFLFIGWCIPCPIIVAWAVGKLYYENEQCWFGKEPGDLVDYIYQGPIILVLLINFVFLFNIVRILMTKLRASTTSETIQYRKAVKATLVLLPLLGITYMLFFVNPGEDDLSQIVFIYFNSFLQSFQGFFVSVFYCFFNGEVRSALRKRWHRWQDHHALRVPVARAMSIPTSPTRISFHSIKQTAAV

Substance	EC50 (CRFR2; [3]) [nM]	further results
RVILSLDVPIGLLRILLEQARYKAARNQAATNAQILAHV-NH2 [R^0-mUcn 2]		EC50 (CRFR2; [2]): 0.05 nM
HPGSRIVLSLDVPIGLLQILLEQARARAAREQATTNARILARV-NH2 [SRP (HPGSR-hUcn 2)]	0.09	
IVLSLDVPIGLLQILLEQARARAAREQATTNARILARVG-OH [hUcn 2-G-OH]	6.3	
RIVLSLDVPIGLLQILLEQARARAAREQATTNARILARV-NH2 [R^0-hUcn 2]		EC50 (CRFR2; [2]): 0.027 nM; hydrophilicity compared with hUcn 2(1-38) [1]: significantly increased hydrophilicity
C(Acm)SPTRHPGSRIVLSLDVPIGLLQILLEQARARAAREQATTNARILARVGHC(Acm)-OH [[Cys^1,51 (Acm)]-hUcn 2(1-51)-OH)]	9.5	
IPTFQLRPQNSPQTTPRPAASESPSAAPTWPWAAQSHCSPTRHPGSRIVLSLDVPIGLLQILLEQARARAAREQATTNARILARV-NH2 [hUcn 2 prohormone]		EC50 (CRFR2): 2.3 nM
TPIPTFQLLPQNSLETTPSSVTSESSSGTTTGPSASWSNSKASPYLDTRVILSLDVPIGLLRILLEQARYKAARNQAATNAQILAHV-NH2 [mUcn 2 prohormone]		EC50 (CRFR2): 0.53 nM

More lines, main results first:

EC50 (CRFR2; [3]) [nM]	Substance	further results
2.9	IVLSLDVPIGLLQILLEQARARAAREQATTNARILARVGH-OH [hUcn 2-GH-OH]	
13.9	IVLSLDVPIGLLQILLEQARARAAREQATTNARILARVGHC-OH [hUcn 2-GHC-OH]	
90.4	IVLSLDVPIGLLQILLEQARARAAREQATTNARILARV-OH [hUcn 2-OH]	

From patent publication US20180271945A1, “UROCORTIN 2 ANALOGS AND USES THEREOF” (Research Development Foundation, priority 2009, published 2018)
